# Measured values taken from patent US4339390A, “Preferential immunoreactivity of syn-isomer of cortisol derivative” (Abbott Laboratories, priority 1981, dated 1982).
# Test system: cortisol antibodies (antisera to cortisol-3-carboxymethyloxime-BSA)
# Experiment: competitive radioimmunoassay, binding affinity curves on antibody-coated polystyrene beads
# Parameters: species or system rabbit
# Method: Female rabbits were immunized subcutaneously at multiple sites with 1 mg of cortisol-3-CMO-BSA conjugate, prepared according to method of example 1, in saline emulsified with complete Freund's adjuvant (Difco Laboratories, Detroit, Michigan) on weeks 1, 2, 3 and 4 with booster injections of […] of the immunogen being given at longer intervals according to the antibody titer. Blood was collected from the marginal ear vein after three months of immunization. The serum was harvested and frozen for future use.
# Into appropriately labeled 12×75 mm plastic tubes containing polystyrene beads coated with cortisol antibodies generated according to this disclosure, was added 25 μl of standard serum, followed by 300 μl of radioactive assay solution containing a mixture of borate buffered saline, pH 8.8; 0.12% Triton X 100 and approximately 0.25 ng/ml of either the syn, anti or racemic mixture of ^125 I labeled tyrosine methyl ester derivative of cortisol-21-acetate-3-carboxymethyloxime. The reaction mixture was incubated with agitation at room temperature for one hour. The liquid contents of the tubes were aspirated and the radioactivity bound to the antibody coated beads was counted. The percent bound versus cortisol concentration was plotted. […] Knowing this preference, it would be advantageous in terms of sensitivity and specificity to employ only the syn isomer in assays for the determination of cortisol in biological fluids.
compound,measurement,setting,value
COC(=O)[C@H](Cc1ccc(O)c([125I])c1)NC(=O)CO/N=C1\C=C2CC[C@@H]3[C@H]([C@@H](O)C[C@@]4(C)[C@H]3CC[C@]4(O)C(=O)COC(C)=O)[C@@]2(C)CC1 [I^125 syn isomer],affinity of antibody for labeled antigen conjugate (percent bound versus cortisol concentration),"approx. 0.25 ng/ml tracer, room temperature, one hour, borate buffered saline pH 8.8, compared with anti isomer and racemic mixture",demonstrably greater affinity
same,affinity constant calculated from slope of standard curves (FIG. 1),compared with I^125 -anti-isomer and I^125 -mixture (syn and anti),highest
same,immunoavidity of antisera for the labeled isomer,compared with labeled anti-isomer and racemic mixture,significant preference in immunoavidity
same,sensitivity of the antibody for the labeled isomer (FIG. 1),standard curves,increased sensitivity
